Measurements from patent publication US20190183960A1, “METHOD TO TREAT ASTHMA AND AIRWAY ALLERGY USING CYCLO TYROSINE-VALINE AND RELATED COMPOUNDS” (Chang Gung Biotechnology Corp., priority 2017, published 2019).
pIC50: −log10 of the molar value.

Legend:
[1] = system: IL-4 secretion by Th2 cells; assay: IL-4 secretion by Th2 cells derived from BALB/c mice (ELISA); type: cell-based; conditions: 3 days; for secretion of pro-inflammatory IL-4 by Th2 cells: 2.3 μM, vs vehicle (0.5% DMSO)
Method: Given that Th2 cells mediate the immunological effects of asthma in humans and animals, we tested the effects of cyclo Tyr-Val on Th2 cells in culture. Naive T cells were isolated from BALB/c mice, and the cells were incubated in a culture medium containing anti-CD3 antibody (2 μg/ml), anti-CD28 antibody (2 μg/ml), anti-interferon-γ (IFN-γ) antibody (10 μg/ml), and IL-4 (10 ng/ml) in order to induce T cell differentiation into Th2 cells. The Th2 cells were treated for 3 days with 2.3 μM of cyclo Tyr-Val, cyclo alanine-isoleucine (cyclo Ala-Ile), cyclo alanine-leucine (cyclo Ala-Leu), cyclo tyrosine-leucine (cyclo Tyr-Leu), cyclo alanine-phenylalanine (cyclo Ala-Phe), or cyclo tyrosine-isoleucine (cyclo Tyr-Ile), and IL-4 protein level was measured using an enzyme-linked immunosorbent assay (ELISA) kit (eBioscience, USA).
(§1) We confirmed that cyclo Tyr-Val inhibits IL-4 secretion by Th2 cells. Th2 cells isolated from BALB/c or C57BL/6J mice were either left untreated or treated for 3 days with the vehicle (0.5% DMSO in saline) or various concentrations of cyclo Tyr-Val, followed by detection of IL-4 production using ELISA.
(§2) The effects of cyclo Tyr-Val on the secretion of other pro-inflammatory cytokines were investigated. […] As shown in FIGS. 4A-4C, cyclo Tyr-Val inhibited not only the secretion of IL-4, but also that of IL-5 and IL-13.

[2] = system: OVA-induced asthmatic mice; assay: IL-4, IL-5, IL-13 protein levels in BALF of OVA-induced asthmatic mice (ELISA); type: in vivo, BALB/c mice; conditions: IP 0.11304-113.04 nmol/kg per day, day 21 to 27
Source text: (§3) Given that asthma is characterized by accumulation of immune cells including eosinophils in lung tissues, we studied the effects of cyclo Tyr-Val on BALF cell count, pro-inflammatory cytokine secretion, and antibody production. OVA-induced asthmatic mice (BALB/c) were established according to the method described in Example 2. After the mice were intraperitoneally treated with the vehicle (0.5% DMSO in saline) or cyclo Tyr-Val at a dose of 0.11304, 1.1304, 11.304, or 113.04 nmol/kg of body weight per day on day 21 to 27, BALF and serum were collected. Total cell count in BALF was determined using a hemocytometer; eosinophils were counted after isolation using Cytospin. Protein levels of IL-4, IL-5, and IL-13 in BALF were determined using ELISA. Serum protein levels of OVA-specific antibodies, including IgE, IgG1, and IgG2a, were determined using ELISA (eBioscience).

Th2 cells = assay: Viability of Th2 cells (WST-1 kit); type: cell-based, BALB/c mice; conditions: 0.018-285.932 μM, 3 days
Method: Experiments were performed to examine the effects of cyclo Tyr-Val on cell viability. Th2 cells isolated from BALB/c mice were either left untreated or treated for 3 days with the vehicle (0.5% DMSO in saline) or cyclo Tyr-Val at a concentration of 0.018, 0.091, 0.457, 2.287, 11.438, 57.186, or 285.932 μM. The viability of these cells was assessed using the WST-1 kit (Roche, Switzerland) according to the manufacturer's instructions.

[3] = system: OVA-induced asthmatic mice; assay: Mode of administration (IP, inhalation, oral) in OVA-induced asthmatic mice; type: in vivo, BALB/c mice; conditions: 11.304 nmol/kg per day, 7 days
Method: This example illustrates the effects of the mode of administration of cyclo Tyr-Val on asthmatic mice. OVA-induced asthmatic mice (BALB/c) were established according to the method described in Example 2. On day 21, the mice were treated intraperitoneally (IP), by inhalation (IH), or orally with cyclo Tyr-Val (at a dose of 11.304 nmol/kg of body weight per day) for 7 days, followed by assessment of AHR, total cell count in BALF, and eosinophil count in BALE OVA-induced asthmatic mice that were administered daily with the vehicle (0.5% DMSO in saline) intraperitoneally were used as control. As shown in FIGS. 9A-9C, treatment of OVA-induced asthmatic mice with cyclo Tyr-Val for 7 days via intraperitoneal injection, inhalation, or the oral route reduced AHR, total BALF cell count, and BALF eosinophil accumulation, compared with the vehicle-treated group.

[4] = Blood biochemical parameters (hepatic and renal functions) in mice; type: in vivo; conditions: IP 11.304 nmol/kg
Method: The effects of cyclo Tyr-Val treatment on hepatic and renal functions in mice were evaluated to determine if the compound produces toxic side effects. For these experiments, saline-treated mice (control group) or OVA-induced asthmatic mice were intraperitoneally treated with the vehicle (0.5% DMSO in saline) or cyclo Tyr-Val (at a dose of 11.304 nmol/kg), followed by measurement of blood biochemical parameters, including levels of aspartate transaminase (AST), alanine transaminase (ALT), total bilirubin (T-BIL), albumin (ALB), blood urea nitrogen (BUN), creatinine (CREA), and uric acid (UA). The blood biochemical parameters were monitored using a Hitachi 7080 biochemical analyzer (Hitachi, Japan).

[5] = system: IL-4 secretion by Th2 cells; assay: IL-4 secretion by Th2 cells derived from C57BL/6J mice (ELISA); type: cell-based; conditions: 3 days
Source text: as §1

[6] = system: OVA-induced asthmatic mice; assay: BALF total cell and eosinophil count in OVA-induced asthmatic mice; type: in vivo, BALB/c mice; conditions: IP 0.11304-113.04 nmol/kg per day, day 21 to 27
Source text: as §3

[7] = system: OVA-induced asthmatic mice; assay: Serum OVA-specific antibodies in OVA-induced asthmatic mice (ELISA); type: in vivo, BALB/c mice; conditions: IP 0.11304-113.04 nmol/kg per day, day 21 to 27
Source text: as §3

[8] = system: OVA-induced asthmatic mice; assay: OVA-induced airway hyperresponsiveness (Penh, whole-body plethysmography, methacholine); type: in vivo, BALB/c mice; conditions: IP 0.11304-113.04 nmol/kg per day, day 21 to 27, methacholine 0-40 mg/ml
Method: Given that asthma is characterized by hyperresponsiveness to airway stimulants, we examined the effect of cyclo Tyr-Val on AHR in the OVA-induced asthmatic mice stimulated with the exemplary antigen OVA and methacholine (Mch). BALB/c mice were treated intraperitoneally with 50 μg of OVA (Sigma, USA) mixed with 0.8 mg of aluminum hydroxide (Thermo Fischer Scientific, USA) on day 0, 1, 2, and 14, and treated with 2% OVA for 20 minutes using a nebulizer (Pulmo-Aide 5650D; DeVilbiss, USA) on day 14, 17, 21, 24, and 27. The OVA-induced asthmatic mice were intraperitoneally treated with the vehicle (0.5% DMSO in saline) or cyclo Tyr-Val at a dose of 0.11304, 1.1304, 11.304, or 113.04 nmol/kg of body weight per day on day 21 to 27. Airway resistance (Penh) was measured using a whole-body plethysmography (WBP) chamber (Buxco Electronics, USA) after stimulation with methacholine at doses of 0, 10, 20, 30, and 40 mg/ml.

[9] = system: IL-5 secretion by Th2 cells; assay: IL-5 secretion by Th2 cells derived from BALB/c mice (ELISA); type: cell-based; conditions: 0.25 μM, 3 days
Source text: as §2

[10] = system: OVA-induced asthmatic mice; assay: Treatment after establishment of OVA-induced AHR, comparison with dexamethasone; type: in vivo, BALB/c mice; conditions: IP 11.304 nmol/kg per day, day 28 to 34, after establishment of AHR
Method: In this example, the anti-asthmatic effect of cyclo Tyr-Val was compared with those of dexamethasone, a pharmaceutical drug conventionally used to treat asthma. OVA-induced asthmatic mice (BALB/c) were established according to the method described in Example 2. The mice were treated with 2% OVA using a nebulizer on day 30 and 33 and were intraperitoneally treated with the vehicle (0.5% DMSO in saline) or cyclo Tyr-Val (at a dose of 11.304 nmol/kg of body weight per day) on day 28 to 34, followed by measurement of AHR, total cell count in BALF, and eosinophil count in BALF. Another group of OVA-induced asthmatic mice that were treated orally with dexamethasone (at a dose of 3 mg/kg of body weight per day) on day 28 to 34 were used as a positive control.

[11] = system: IL-13 secretion by Th2 cells; assay: IL-13 secretion by Th2 cells derived from BALB/c mice (ELISA); type: cell-based; conditions: 0.25 μM, 3 days
Source text: as §2

CC[C@H](C)[C@@H]1NC(=O)[C@H](C)NC1=O [cyclo Ala-Ile, cyclo alanine-isoleucine, reference compound]
secretion of pro-inflammatory IL-4 by Th2 cells [1]: failed to inhibit IL-4 secretion

CC(C)C[C@@H]1NC(=O)[C@H](C)NC1=O [cyclo Ala-Leu, cyclo alanine-leucine, reference compound]
secretion of pro-inflammatory IL-4 by Th2 cells [1]: failed to inhibit IL-4 secretion

CC1NC(=O)C(Cc2ccccc2)NC1=O (stereo not shown) [cyclo Ala-Phe, cyclo alanine-phenylalanine, reference compound]
secretion of pro-inflammatory IL-4 by Th2 cells [1]: failed to inhibit IL-4 secretion

CC[C@H](C)[C@@H]1NC(=O)[C@H](Cc2ccc(O)cc2)NC1=O [cyclo Tyr-Ile, cyclo tyrosine-isoleucine, reference compound]
secretion of pro-inflammatory IL-4 by Th2 cells [1]: failed to inhibit IL-4 secretion

CC(C)CC1NC(=O)C(Cc2ccc(O)cc2)NC1=O (stereo not shown) [cyclo Tyr-Leu, cyclo tyrosine-leucine]
secretion of pro-inflammatory IL-4 by Th2 cells [1]: inhibited IL-4 to some extent

CC(C)C1NC(=O)C(Cc2ccc(O)cc2)NC1=O (stereo not shown) [cyclo Tyr-Val, cyclo tyrosine-valine]
OVA-induced secretion of IL-4 in BALF [2]: reduced | OVA-induced secretion of IL-5 in BALF [2]: reduced | OVA-induced secretion of IL-13 in BALF [2]: reduced | secretion of IL-4 ([1]; 0.25 μM): inhibited | secretion of pro-inflammatory IL-4 by Th2 cells [1]: significantly inhibited | pIC50 ([1]; Mus musculus, 72 h, Th2 cells from BALB/c mice, read-out: IC50, inhibition of IL-4 secretion): 7.58 | IC90 ([1]; Mus musculus, 72 h, Th2 cells from BALB/c mice, read-out: IC90, inhibition of IL-4 secretion): 252 nM | IL-4 secretion, dose dependence ([1]; various concentrations, BALB/c Th2 cells): inhibited IL-4 secretion in a dose-dependent manner | cytotoxic effects on cultured Th2 cells (viability) (Th2 cells): no cytotoxic effects | AHR ([3]; inhalation): reduced | BALF eosinophil accumulation ([3]; inhalation): reduced | total BALF cell count ([3]; inhalation): reduced | AHR ([3]; intraperitoneal injection): reduced | BALF eosinophil accumulation ([3]; intraperitoneal injection): reduced | total BALF cell count ([3]; intraperitoneal injection): reduced | AHR ([3]; oral route): reduced | BALF eosinophil accumulation ([3]; oral route): reduced | total BALF cell count ([3]; oral route): reduced | ALB ([4]; OVA-induced asthmatic mice): 2.737 ± 0.322 g/dL | ALT ([4]; OVA-induced asthmatic mice): 26.673 ± 2.279 U/l | AST ([4]; OVA-induced asthmatic mice): 69.718 ± 4.115 U/l | BUN ([4]; OVA-induced asthmatic mice): 25.864 ± 2.638 mg/dL | CREA ([4]; OVA-induced asthmatic mice): 0.250 ± 0.078 mg/dL | T-BIL ([4]; OVA-induced asthmatic mice): 26.508 ± 2.454 µg/dL | UA ([4]; OVA-induced asthmatic mice): 2.690 ± 0.275 mg/dL | hepatic or renal functions ([4]; control and OVA-induced asthmatic mice): did not significantly affect | ALB ([4]; control mice): 2.669 ± 0.480 g/dL | ALT ([4]; control mice): 26.283 ± 2.813 U/l | AST ([4]; control mice): 70.775 ± 3.056 U/l | BUN ([4]; control mice): 26.588 ± 2.756 mg/dL | CREA ([4]; control mice): 0.236 ± 0.124 mg/dL | T-BIL ([4]; control mice): 26.169 ± 3.536 µg/dL | UA ([4]; control mice): 2.979 ± 0.412 mg/dL | pIC50 ([5]; Mus musculus, 72 h, Th2 cells from C57BL/6J mice, read-out: IC50, inhibition of IL-4 secretion): 7.35 | IC90 ([5]; Mus musculus, 72 h, Th2 cells from C57BL/6J mice, read-out: IC90, inhibition of IL-4 secretion): 357 nM | IL-4 secretion, dose dependence ([5]; various concentrations, C57BL/6J Th2 cells): inhibited IL-4 secretion in a dose-dependent manner | OVA-induced cell infiltration in BALF (total cell count) [6]: reduced | OVA-induced eosinophilia in BALF [6]: reduced | OVA-specific IgE production in sera [7]: dose-dependently reduces | OVA-specific IgG1 production in sera [7]: dose-dependently reduces | OVA-specific IgG2a production in sera [7]: dose-dependently reduces | OVA-induced AHR (airway resistance, Penh) [8]: inhibited OVA-induced AHR in a dose-dependent manner | secretion of IL-5 [9]: inhibited | AHR [10]: significantly reduced | BALF eosinophil accumulation [10]: significantly reduced | BALF total cell count [10]: significantly reduced | secretion of IL-13 [11]: inhibited
